# According to US4349546A, “D-Allose derivative and preparation method therefor” (Wakamoto Pharmaceutical Co., Ltd., priority 1980, dated 1982):
# Test system: lung autotumor
# Assay: Inhibition of mouse lung autotumor induced by ethylnitrosourea (Test Example 5)
# Type: in vivo, DDY mice
# Protocol: 100 mg/kg of ethylnitrosourea was given intraperitoneally to DDY mice 3 to 4 days prior to delivery. After delivery, mice born with lung autotumor were used as the test animals. One group consisted of 10 mice.
# Four weeks after birth, a given amount of CNUA was administered in two ways, i.e., intravenous administration and peroral administration at predetermined times. Nine weeks after, the area of the tumor of each mouse was measued and the inhibition rate (%) was calculated.
smiles,measurement,setting,value
"O=NN(CCCl)C(=O)N[C@@H]1[C@H](O)[C@@H](CO)OC(O)[C@@H]1O (stereo partly drawn) [CNUA, 3-[3-(2-chloroethyl)-3-nitrosoureido]-3-deoxy-D-allose]",Inhibition rate,"iv, 5 weeks after birth, 40 × 1 mg/kg",37.2%
same,Area of tumor (± S.E.),"iv, 5 weeks after birth, 40 × 1 mg/kg, p < 0.05, control 1.45 ± 0.30",0.91 ± 0.81 mm^2
same,Inhibition rate,"iv, 5.6 weeks after birth, 40 × 2 mg/kg",49.2%
same,Area of tumor (± S.E.),"iv, 5.6 weeks after birth, 40 × 2 mg/kg, p < 0.01, control 1.45 ± 0.30",0.75 ± 0.22 mm^2
same,Inhibition rate,"iv, 5.7 weeks after birth, 40 × 2 mg/kg",46.5%
same,Area of tumor (± S.E.),"iv, 5.7 weeks after birth, 40 × 2 mg/kg, p < 0.01, control 1.45 ± 0.30",0.79 ± 0.31 mm^2
same,Inhibition rate,"po, 5,6,7,8 weeks after birth, 133 × 4 mg/kg",44.7%
same,Area of tumor (± S.E.),"po, 5,6,7,8 weeks after birth, 133 × 4 mg/kg, p < 0.01, control 1.41 ± 0.44",0.78 ± 0.22 mm^2
same,Inhibition rate,"po, 5,6,7,8 weeks after birth, 200 × 4 mg/kg",44.7%
same,Area of tumor (± S.E.),"po, 5,6,7,8 weeks after birth, 200 × 4 mg/kg, p < 0.01, control 1.41 ± 0.44",0.78 ± 0.16 mm^2
same,Inhibition rate,"po, 5,6,7,8 weeks after birth, 267 × 4 mg/kg",61.0%
same,Area of tumor (± S.E.),"po, 5,6,7,8 weeks after birth, 267 × 4 mg/kg, p < 0.01, control 1.41 ± 0.44",0.55 ± 0.18 mm^2
same,Inhibition rate,"po, 5,6,7,8 weeks after birth, 333 × 4 mg/kg",53.2%
same,Area of tumor (± S.E.),"po, 5,6,7,8 weeks after birth, 333 × 4 mg/kg, p < 0.01, control 1.41 ± 0.44",0.66 ± 0.14 mm^2
